Reference: ChEMBL document CHEMBL4765332, “A multi-scale systems pharmacology approach uncovers the anti-cancer molecular mechanism of Ixabepilone” (Eur J Med Chem, 2020)
Calls of active or inactive are those of the source. The calls are words filed in the database; no cut-off is given here.

Legend:
[1] = target: T1, Apoptosis regulator Bcl-2 (Homo sapiens, UniProt P10415); test: Induction of Bcl-2 phosphorylation-mediated protein degradation in human HepG2 cells assessed as decrease in Bcl-2 expression at 0.4 to 6.4 uM measured after 48 hrs by western blot analysis; format: cell-based; conditions: dose 0.4-6.4 µM
T1 sequence (P10415 whole entry): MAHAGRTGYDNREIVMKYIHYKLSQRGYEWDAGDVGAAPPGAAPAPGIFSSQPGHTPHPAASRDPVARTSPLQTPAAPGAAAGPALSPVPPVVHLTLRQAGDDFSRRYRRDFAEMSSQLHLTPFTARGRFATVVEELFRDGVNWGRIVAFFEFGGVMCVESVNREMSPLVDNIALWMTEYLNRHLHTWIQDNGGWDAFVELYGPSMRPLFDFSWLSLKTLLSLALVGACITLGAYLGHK

MDA-MB-231 [2] = test: Antitumor activity against human MDA-MB-231 cells xenografted in BALB/c mouse assessed as tumor growth inhibition at 3 mg/kg, ip administered with compound every other day and with 10 mg/kg, ip CQ every day and measured every 3 days by vernier caliper analysis; format: functional, organism-based
BT-549 [3] = test: Induction of apoptosis in human BT-549 cells assessed as increase in cleaved PARP level pretreated with 20 uM autophagy inhibitor, CQ for 1 hr followed by incubation with drug for 48 hrs by western blot analysis; format: functional, cell-based
[4] = target: T1, Apoptosis regulator Bcl-2; test: Upregulation of Bcl-2 phosphorylation at Ser70 residue in human MDA-MB-231 cells at 0.05 to 0.4 microM incubated for 48 hrs by western blot analysis; format: cell-based; conditions: dose 0.05-0.4 µM
BT-549 [5] = test: Induction of apoptosis in human BT-549 cells assessed as early apoptotic cells incubated for 48 hrs by AnnexinV-FITC and propidium iodide staining based flow cytometry analysis(reference value: 0.609%); format: functional
[6] = target: T1, Apoptosis regulator Bcl-2; test: Upregulation of Bcl-2 phosphorylation at Ser70 residue in human BT549 cells at 0.05 to 0.4 microM incubated for 48 hrs by western blot analysis; format: cell-based; conditions: BT-549, dose 0.05-0.4 µM
BT-549 [7] = test: Induction of apoptosis in human BT-549 cells assessed as late apoptotic cells incubated for 48 hrs in presence of 20 uM autophagy inhibitor, CQ by AnnexinV-FITC and propidium iodide staining based flow cytometry analysis(reference value: 2.64%); format: functional
MDA-MB-231 [8] = test: Effect on Beclin1 expression in human MDA-MB-231 cells at 0.2 uM measured after 48 hrs by western blot analysis; format: functional, cell-based
HepG2 = test: Induction of autophagy in human HepG2 cells assessed as increase in LC3-II expression at 0.4 to 6.4 uM measured after 48 hrs by western blot analysis; format: functional, cell-based; conditions: dose 0.4-6.4 µM
[9] = target: T1, Apoptosis regulator Bcl-2; test: Upregulation of Bcl-2 phosphorylation at Ser70 residue in human BT549 cells at 0.1 microM incubated for 12 to 36 hrs by western blot analysis; format: cell-based; conditions: BT-549, time 12-36 hrs
MDA-MB-231 [10] = test: Cytotoxicity against human MDA-MB-231 cells transfected with non-targeting siRNA at 0.1 to 1.6 uM measured after 48 hrs by CCK8 assay; format: functional, cell-based; conditions: dose 0.1-1.6 µM
U-251 [11] = test: Induction of autophagy in human U251 cells assessed as increase in LC3-II expression at 0.4 to 6.4 uM measured after 48 hrs by western blot analysis; format: functional, cell-based; conditions: dose 0.4-6.4 µM
[12] = target: T1, Apoptosis regulator Bcl-2; test: Induction of Bcl-2 phosphorylation-mediated protein degradation in human MCF7 cells assessed as decrease in Bcl-2 expression at 0.1 to 0.2 uM pretreated with proteasome inhibitor, MG132 for 2 hrs followed by incubation with compound for 48 hrs by western blot analysis; format: cell-based; conditions: dose 0.1-0.2 µM
U-251 [13] = test: Induction of autophagy in human U251 cells assessed as increase in LC3-II expression at 0.4 uM measured after 12 to 48 hrs by western blot analysis; format: functional, cell-based; conditions: time 12-48 hrs
[14] = target: T1, Apoptosis regulator Bcl-2; test: Induction of Bcl-2 phosphorylation-mediated protein degradation in human MCF7 cells assessed as decrease in Bcl-2 expression measured after 48 hrs by western blot analysis; format: cell-based; conditions: dose 0.05-0.4 µM
Mus musculus = test: Downregulation of Ki67 expression in tumor tissue of BALB/c mouse xenografted with human MDA-MB-231 cells at 3 mg/kg, ip administered with compound every other day and with 10 mg/kg, ip CQ every day by immunohistochemical staining; format: functional, organism-based
BT-549 [15] = test: Induction of apoptosis in human BT-549 cells assessed as necrotic cells incubated for 48 hrs by AnnexinV-FITC and propidium iodide staining based flow cytometry analysis(reference value: 0.145%); format: functional
MCF7 [16] = test: Induction of autophagy in human MCF7 cells assessed as increase in LC3-II level at 0.1 uM by Western blot analysis; format: functional, cell-based; conditions: time 12-48 hrs, TDE = time-dependent effect
MDA-MB-231 [17] = test: Induction of autophagy in human MDA-MB-231 cells assessed as increase in LC3-II level at 0.1 uM by Western blot analysis; format: functional, cell-based; conditions: time 12-48 hrs, TDE = time-dependent effect
MCF7 [18] = test: Induction of autophagy in human MCF-7 cells assessed as increase in LC3-II level measured after 48 hrs by Western blot analysis; format: functional, cell-based; conditions: dose 0.05-0.4 µM
[19] = target: T1, Apoptosis regulator Bcl-2; test: Binding affinity to human recombinant Bcl-2 expressed in Escherichia coli by Surface plasmon resonance assay
MDA-MB-231 [20] = test: Induction of autophagy in human MDA-MB-231 cells assessed as increase in LC3-II level measured after 48 hrs by Western blot analysis; format: functional, cell-based; conditions: dose 0.05-0.4 µM
BT-549 [21] = test: Induction of apoptosis in human BT-549 cells assessed as viable cells incubated for 48 hrs in presence of 20 uM autophagy inhibitor, CQ by AnnexinV-FITC and propidium iodide staining based flow cytometry analysis(reference value: 94.6%); format: functional
MDA-MB-231 [22] = test: Cytotoxicity against human MDA-MB-231 cells at 0.1 to 1.6 uM measured after 48 hrs in presence of 20 uM autophagy inhibitor, chloroquine by CCK8 assay; format: functional, cell-based; conditions: dose 0.1-1.6 µM
MDA-MB-231 [23] = test: Induction of autophagy in human MDA-MB-231 cells transfected with Beclin1 siRNA assessed as LC3-II level at 0.1 uM by western blot analysis; format: functional, cell-based
[24] = target: T1, Apoptosis regulator Bcl-2; test: Induction of Bcl-2 phosphorylation-mediated protein degradation in human BT549 cells assessed as decrease in Bcl-2 expression at 0.1 to 0.2 uM pretreated with proteasome inhibitor, MG132 for 2 hrs followed by incubation with compound for 48 hrs by western blot analysis; format: cell-based; conditions: BT-549, dose 0.1-0.2 µM
MDA-MB-231 [25] = test: Cytotoxicity against human MDA-MB-231 cells at 0.1 to 1.6 uM measured after 48 hrs in presence of 2 mM autophagy inhibitor, 3-methyladenine by CCK8 assay; format: functional, cell-based; conditions: dose 0.1-1.6 µM
BT-549 [26] = test: Cytotoxicity against human BT-549 cells at 0.1 to 1.6 uM measured after 48 hrs in presence of 2 mM autophagy inhibitor, 3-methyladenine by CCK8 assay; format: functional, cell-based; conditions: dose 0.1-1.6 µM
BT-549 [27] = test: Induction of autophagy in human BT-549 cells assessed as increase in LC3-II level at 0.1 uM by Western blot analysis; format: functional, cell-based; conditions: time 12-48 hrs, TDE = time-dependent effect
BT-549 [28] = test: Induction of apoptosis in human BT-549 cells transfected with Beclin1 siRNA assessed as increase in cleaved caspase-3 level measured after 48 hrs by western blot analysis; format: functional, cell-based
BT-549 [29] = test: Induction of autophagy in human BT-549 cells assessed increase in LC3-II level at 0.1 to 0.2 uM preincubated with 20 uM autophagosome-lysosome fusion inhibitor, chloroquine for 1 hr followed by incubation with compound for 48 hrs by western blot analysis; format: functional, cell-based; conditions: dose 0.1-0.2 µM

C/C(=C\c1csc(C)n1)[C@@H]1C[C@@H]2O[C@]2(C)CCC[C@H](C)[C@H](O)[C@@H](C)C(=O)C(C)(C)[C@@H](O)CC(=O)N1 [IXABEPILONE]
Activity [1]: Active
Activity (MDA-MB-231 [2]): Active
Activity (BT-549 [3]): Active
Activity [4]: Active
Activity (BT-549 [5]): 2.17%
Activity [6]: Active
Activity (BT-549 [7]): 18%
Activity (MDA-MB-231 [8]): inactive
Activity (HepG2): Active
Activity [9]: Active
Activity (MDA-MB-231 [10]): Active
Activity (U-251 [11]): Active
Activity [12]: inactive
Activity (U-251 [13]): Active
Activity [14]: Dose-dependent effect
inhibition (Mus musculus): Active
Activity (BT-549 [15]): 1.47%
Activity (MCF7 [16]): Tde
Activity (MDA-MB-231 [17]): Tde
Activity (MCF7 [18]): Dose-dependent effect
Kd [19]: 337 nM
Activity (MDA-MB-231 [20]): Dose-dependent effect
Activity (BT-549 [21]): 74.3%
Activity (MDA-MB-231 [22]): Active
Activity (MDA-MB-231 [23]): inactive
Activity [24]: inactive
Activity (MDA-MB-231 [25]): Active
Activity (BT-549 [26]): Active
Activity (BT-549 [27]): Tde
Activity (BT-549 [28]): Active
Activity (BT-549 [29]): Active
